{
  "source": "patent US20220133738A1",
  "about": "“GENOTYPE AND DOSE-DEPENDENT RESPONSE TO AN ASBTI IN PATIENTS WITH BILE SALT EXPORT PUMP DEFICIENCY” (MIRUM PHARMACEUTICALS, INC., priority 2019, published 2022)",
  "tested_on": "overweight and obese adults",
  "assay": "Dose-ranging phase 1 clinical study (NCT02475317): fecal bile acid excretion with maralixibat and volixibat",
  "format": "in vivo, human",
  "conditions": "for fBA excretion, mean change from baseline: baseline to day 6 and 7",
  "data": [
    {"smiles": "CCCC[C@]1(CC)CS(=O)(=O)c2ccc(N(C)C)cc2[C@@H](c2cccc(NC(=O)N[C@@H]3O[C@H](COS(=O)(=O)O)[C@@H](O)[C@H](OCc4ccccc4)[C@H]3O)c2)[C@H]1O", "note": "[volixibat]", "values": [
      {"measurement": "fBA excretion, mean change from baseline", "setting": "10 mg dose (QD), 7 days", "result": 744, "unit": "µmol"},
      {"measurement": "fBA excretion, mean change from baseline", "setting": "20 mg dose (QD), 7 days", "result": 874, "unit": "µmol"},
      {"measurement": "fBA excretion, dose dependence", "setting": "across tested doses, 7 days", "result": "increased in a dose-dependent manner"},
      {"measurement": "treatment-emergent adverse events", "setting": "all doses, 7 days", "result": "mild, and none were serious"},
      {"measurement": "Mean serum 7αC4", "setting": "baseline to day 7, greatest change at maralixibat 50 mg BID", "result": "increased"},
      {"measurement": "Mean sBA levels", "setting": "day 7 versus baseline", "result": "not elevated"}
    ]}
  ]
}
